Measurements: PubChem BioAssay AID1745844 (Carcinogenic Potency Database (CPDB), 2022)
“And” between values parts separate entries of the source, which are not always exact repeats. Equal entries are not always repeated. The source made the active and inactive calls. No rule for the calls is given here.

Test system: rodent lifetime carcinogenesis bioassay, tumor incidence TD50
Experiment: chronic cancer bioassays in animals – CPDB, compiled studies (AID 1745844)

SMILES: Brc1cc(Br)c(-c2c(Br)c(Br)c(Br)c(Br)c2Br)c(Br)c1Br
- TD50 (mouse, strain B6C3F1, females, in feed, site: any site (literature study), lesion: several types, types named in the paper, dosed 78 weeks, study length 78 weeks): 4.9 mg/kg/day
- TD50 (mouse, strain B6C3F1, females, in feed, site: liver, lesion: hepatocellular carcinoma, dosed 78 weeks, study length 78 weeks): 13.7 mg/kg/day
- TD50 (mouse, strain B6C3F1, females, in feed, site: liver, lesion: neoplastic nodule, dosed 78 weeks, study length 78 weeks): 4.89 mg/kg/day
- TD50 (mouse, strain B6C3F1, males, in feed, site: any site (literature study), lesion: several types, types named in the paper, dosed 78 weeks, study length 78 weeks): 2.07 mg/kg/day
- TD50 (mouse, strain B6C3F1, males, in feed, site: liver, lesion: hepatoblastoma, dosed 78 weeks, study length 78 weeks): 35.4 mg/kg/day
- TD50 (mouse, strain B6C3F1, males, in feed, site: liver, lesion: hepatocellular carcinoma, dosed 78 weeks, study length 78 weeks): 3.44 mg/kg/day
- TD50 (mouse, strain B6C3F1, males, in feed, site: liver, lesion: neoplastic nodule, dosed 78 weeks, study length 78 weeks): 2.86 mg/kg/day

SMILES: Nc1c(F)c(N)c(F)c(F)c1F
- TD50 (mouse, strain CD-1 HaM/ICR, females, in feed, site: liver, lesion: several types, types named in the paper, dosed 77 weeks, study length 94 weeks): 6500 mg/kg/day (inactive)
- carcinogen call (mouse, strain CD-1 HaM/ICR, females, in feed, site: lung, lesion: several types, types named in the paper, dosed 77 weeks, study length 94 weeks): negative (inactive)
- TD50 (mouse, strain CD-1 HaM/ICR, males, in feed, site: any site (literature study), lesion: several types, types named in the paper, dosed 77 weeks, study length 94 weeks): 331 mg/kg/day
- TD50 (mouse, strain CD-1 HaM/ICR, males, in feed, site: liver, lesion: hepatoma, dosed 77 weeks, study length 94 weeks): 86.3 mg/kg/day and 109 mg/kg/day
- TD50 (mouse, strain CD-1 HaM/ICR, males, in feed, site: liver, lesion: several types, types named in the paper, dosed 77 weeks, study length 94 weeks): 78.3 mg/kg/day
- TD50 (mouse, strain CD-1 HaM/ICR, males, in feed, site: lung, lesion: several types, types named in the paper, dosed 77 weeks, study length 94 weeks): 1130 mg/kg/day (inactive)
- TD50 (rat, strain Charles River CD (Sprague-Dawley), males, in feed, site: any site (literature study), lesion: several types, types named in the paper, dosed 77 weeks, study length 98 weeks): 14.6 mg/kg/day (inactive)
- carcinogen call (rat, strain Charles River CD (Sprague-Dawley), males, in feed, site: liver, lesion: several types, types named in the paper, dosed 77 weeks, study length 98 weeks): negative (inactive)

SMILES: COC(=O)C(C)(C)Oc1ccc(-c2ccc(Cl)cc2)cc1
- TD50 (mouse, strain AP Alderly Park, females, in feed, site: liver, lesion: hepatocellular adenoma, dosed 78 weeks, study length 78 weeks): 2.27 mg/kg/day
- TD50 (mouse, strain AP Alderly Park, females, in feed, site: liver, lesion: hepatocellular carcinoma, dosed 78 weeks, study length 78 weeks): 8.3 mg/kg/day
- TD50 (mouse, strain AP Alderly Park, females, in feed, site: liver, lesion: several types, types named in the paper, dosed 52 weeks, study length 78 weeks): 25 mg/kg/day
- TD50 (mouse, strain AP Alderly Park, females, several routes, site: liver, lesion: hepatocellular adenoma, dosed 78 weeks, study length 78 weeks): 48.5 mg/kg/day
- TD50 (mouse, strain AP Alderly Park, females, several routes, site: liver, lesion: hepatocellular carcinoma, dosed 78 weeks, study length 78 weeks): 13.4 mg/kg/day
- TD50 (mouse, strain AP Alderly Park, females, several routes, site: lung, lesion: adenoma, dosed 78 weeks, study length 78 weeks): 890 mg/kg/day
- TD50 (mouse, strain AP Alderly Park, males, in feed, site: liver, lesion: hepatocellular adenoma, dosed 78 weeks, study length 78 weeks): 2.75 mg/kg/day
- TD50 (mouse, strain AP Alderly Park, males, in feed, site: liver, lesion: hepatocellular carcinoma, dosed 78 weeks, study length 78 weeks): 0.858 mg/kg/day
- TD50 (mouse, strain AP Alderly Park, males, in feed, site: liver, lesion: several types, types named in the paper, dosed 26 weeks, study length 78 weeks): 2.08 mg/kg/day
- TD50 (mouse, strain AP Alderly Park, males, in feed, site: liver, lesion: several types, types named in the paper, dosed 52 weeks, study length 78 weeks): 5.94 mg/kg/day
- TD50 (mouse, strain AP Alderly Park, males, several routes, site: liver, lesion: hepatocellular carcinoma, dosed 78 weeks, study length 78 weeks): 16.8 mg/kg/day
- TD50 (rat, strain Alpk:APfSD, females, in feed, site: liver, lesion: hepatocellular adenoma, dosed 104 weeks, study length 104 weeks): 460 mg/kg/day
- TD50 (rat, strain Alpk:APfSD, females, in feed, site: liver, lesion: hepatocellular carcinoma, dosed 104 weeks, study length 104 weeks): 5.88 mg/kg/day
- TD50 (rat, strain Alpk:APfSD, males, in feed, site: liver, lesion: hepatocellular adenoma, dosed 104 weeks, study length 104 weeks): 17.4 mg/kg/day
- TD50 (rat, strain Alpk:APfSD, males, in feed, site: liver, lesion: hepatocellular carcinoma, dosed 104 weeks, study length 104 weeks): 2.87 mg/kg/day
- TD50 (rat, strain Alpk:APfSD, males, in feed, site: pancreas, exocrine, lesion: adenoma, dosed 52 weeks, study length 104 weeks): 1.44 mg/kg/day
- TD50 (rat, strain Alpk:APfSD, males, in feed, site: pancreas, exocrine, lesion: adenoma, dosed 104 weeks, study length 104 weeks): 18.5 mg/kg/day
- TD50 (rat, strain Alpk:APfSD, males, in feed, site: testis, lesion: Leydig-cell adenoma, dosed 104 weeks, study length 104 weeks): 2.93 mg/kg/day
- carcinogen call (rat, strain Fischer 344, males, in feed, site: liver, lesion: hepatocellular carcinoma, dosed 75 weeks, study length 75 weeks): positive

SMILES: NCC(=O)O
- TD50 (rat, strain F344/DuCrj, females, in drinking water, site: any site (literature study), lesion: several types, types named in the paper, dosed 108 weeks, study length 108 weeks): 7550 mg/kg/day
- TD50 (rat, strain F344/DuCrj, females, in drinking water, site: kidney/pelvis, lesion: transitional-cell papilloma, dosed 108 weeks, study length 108 weeks): 25700 mg/kg/day
- TD50 (rat, strain F344/DuCrj, females, in drinking water, site: liver, lesion: neoplastic nodule, dosed 108 weeks, study length 108 weeks): 157000 mg/kg/day
- TD50 (rat, strain F344/DuCrj, females, in drinking water, site: uterus, lesion: endometrial stromal polyp, dosed 108 weeks, study length 108 weeks): 3100 mg/kg/day

SMILES: COC(=O)C(c1ccccc1)C1CCCCN1N=O (configuration not stated)
- carcinogen call (mouse, strain (C57BL/6 x BALB/c)F1, females, in drinking water, site: any site (literature study), lesion: several types, types named in the paper, dosed 73 weeks, study length 106 weeks): negative (inactive)
- carcinogen call (mouse, strain (C57BL/6 x BALB/c)F1, females, in drinking water, site: liver, lesion: one or several types, types not named, dosed 73 weeks, study length 106 weeks): negative (inactive)
- carcinogen call (mouse, strain (C57BL/6 x BALB/c)F1, females, in drinking water, site: lung, lesion: one or several types, types not named, dosed 73 weeks, study length 106 weeks): negative (inactive)
- carcinogen call (mouse, strain (C57BL/6 x BALB/c)F1, males, in drinking water, site: any site (literature study), lesion: several types, types named in the paper, dosed 73 weeks, study length 106 weeks): negative (inactive)
- carcinogen call (mouse, strain (C57BL/6 x BALB/c)F1, males, in drinking water, site: lung, lesion: one or several types, types not named, dosed 73 weeks, study length 106 weeks): negative (inactive)

SMILES: Cn1cc[nH]c1=S
- TD50 (rat, strain Harlan, females, in feed, site: thyroid gland, lesion: follicular adenocarcinoma, dosed 104 weeks, study length 104 weeks): 9.47 mg/kg/day
- TD50 (rat, strain Harlan, females, in feed, site: thyroid gland, lesion: follicular-cell adenoma, dosed 104 weeks, study length 104 weeks): 1.57 mg/kg/day
- TD50 (rat, strain Harlan, males, in feed, site: thyroid gland, lesion: follicular adenocarcinoma, dosed 104 weeks, study length 104 weeks): 37.6 mg/kg/day
- TD50 (rat, strain Harlan, males, in feed, site: thyroid gland, lesion: follicular-cell adenoma, dosed 104 weeks, study length 104 weeks): 0.9 mg/kg/day

SMILES: Nc1ccc(Cl)cc1
- carcinogen call (mouse, strain B6C3F1, females, by gavage, site: any site (literature study), lesion: several types, types named in the paper, dosed 103 weeks, study length 105 weeks): negative (inactive)
- TD50 (mouse, strain B6C3F1, females, by gavage, site: liver, lesion: hepatocellular adenoma + hepatocellular carcinoma + neoplastic nodule, dosed 103 weeks, study length 105 weeks): 176 mg/kg/day
- TD50 (mouse, strain B6C3F1, males, by gavage, site: all sites + liver, lesion: hemangiosarcoma + hepatocellular adenoma + hepatocellular carcinoma, dosed 103 weeks, study length 105 weeks): 56 mg/kg/day
- TD50 (mouse, strain B6C3F1, males, by gavage, site: all sites, lesion: hemangiosarcoma, dosed 103 weeks, study length 105 weeks): 89.5 mg/kg/day
- TD50 (mouse, strain B6C3F1, males, by gavage, site: any site (literature study), lesion: several types, types named in the paper, dosed 103 weeks, study length 105 weeks): 83.7 mg/kg/day
- TD50 (mouse, strain B6C3F1, males, by gavage, site: liver, lesion: hepatocellular adenoma + hepatocellular carcinoma + neoplastic nodule, dosed 103 weeks, study length 105 weeks): 49.3 mg/kg/day
- TD50 (mouse, strain B6C3F1, males, by gavage, site: liver, lesion: hepatocellular adenoma + hepatocellular carcinoma, dosed 103 weeks, study length 105 weeks): 49.3 mg/kg/day
- TD50 (mouse, strain B6C3F1, males, by gavage, site: liver, lesion: hepatocellular carcinoma, dosed 103 weeks, study length 105 weeks): 33.8 mg/kg/day
- TD50 (mouse, strain B6C3F1, males, by gavage, site: lung, lesion: alveolar/bronchiolar adenoma + alveolar/bronchiolar carcinoma, dosed 103 weeks, study length 105 weeks): 2780 mg/kg/day
- TD50 (rat, strain Fischer 344, females, by gavage, site: adrenal medulla, lesion: pheochromocytoma, benign, dosed 103 weeks, study length 105 weeks): 105 mg/kg/day
- TD50 (rat, strain Fischer 344, females, by gavage, site: any site (literature study), lesion: several types, types named in the paper, dosed 103 weeks, study length 105 weeks): 145 mg/kg/day
- TD50 (rat, strain Fischer 344, females, by gavage, site: spleen, lesion: fibrosarcoma + osteosarcoma, dosed 103 weeks, study length 105 weeks): 232 mg/kg/day
- TD50 (rat, strain Fischer 344, males, by gavage, site: adrenal medulla, lesion: pheochromocytoma benign, bilateral + pheochromocytoma, benign, dosed 103 weeks, study length 105 weeks): 14.8 mg/kg/day
- TD50 (rat, strain Fischer 344, males, by gavage, site: adrenal medulla, lesion: pheochromocytoma benign, bilateral + pheochromocytoma, malignant + pheochromocytoma, benign, dosed 103 weeks, study length 105 weeks): 13.3 mg/kg/day
- TD50 (rat, strain Fischer 344, males, by gavage, site: any site (literature study), lesion: several types, types named in the paper, dosed 103 weeks, study length 105 weeks): 20.8 mg/kg/day
- TD50 (rat, strain Fischer 344, males, by gavage, site: spleen, lesion: fibrosarcoma + fibroma, dosed 103 weeks, study length 105 weeks): 16.9 mg/kg/day
- TD50 (rat, strain Fischer 344, males, by gavage, site: spleen, lesion: fibrosarcoma + hemangiosarcoma + osteosarcoma, dosed 103 weeks, study length 105 weeks): 7.62 mg/kg/day
- TD50 (rat, strain Fischer 344, males, by gavage, site: spleen, lesion: fibrosarcoma + osteosarcoma, dosed 103 weeks, study length 105 weeks): 7.9 mg/kg/day
- TD50 (rat, strain Fischer 344, males, by gavage, site: spleen, lesion: fibrosarcoma, dosed 103 weeks, study length 105 weeks): 19 mg/kg/day
- TD50 (rat, strain Fischer 344, males, by gavage, site: spleen, lesion: hemangiosarcoma, dosed 103 weeks, study length 105 weeks): 107 mg/kg/day
- TD50 (rat, strain Fischer 344, males, by gavage, site: spleen, lesion: osteosarcoma, dosed 103 weeks, study length 105 weeks): 15.5 mg/kg/day

SMILES: CCNc1nc(Cl)nc(NC(C)(C)C#N)n1
- TD50 (rat, strain Charles River CD (Sprague-Dawley), females, in feed, site: liver, lesion: hepatocellular adenoma, dosed 105 weeks, study length 105 weeks): 280 mg/kg/day
- TD50 (rat, strain Charles River CD (Sprague-Dawley), females, in feed, site: mammary gland, lesion: adenocarcinoma, dosed 105 weeks, study length 105 weeks): 6.65 mg/kg/day
- TD50 (rat, strain Charles River CD (Sprague-Dawley), females, in feed, site: mammary gland, lesion: benign tumor, dosed 52 weeks, study length 52 weeks): 8.77 mg/kg/day
- TD50 (rat, strain Charles River CD (Sprague-Dawley), females, in feed, site: mammary gland, lesion: carcinosarcoma, dosed 105 weeks, study length 105 weeks): 140 mg/kg/day
- TD50 (rat, strain Charles River CD (Sprague-Dawley), females, in feed, site: mammary gland, lesion: fibroadenoma, dosed 52 weeks, study length 52 weeks): 3.03 mg/kg/day
- TD50 (rat, strain Charles River CD (Sprague-Dawley), females, in feed, site: mammary gland, lesion: malignant tumor, dosed 105 weeks, study length 105 weeks): 6.33 mg/kg/day
- TD50 (rat, strain Charles River CD (Sprague-Dawley), females, in feed, site: mammary gland, lesion: several types, types named in the paper, dosed 105 weeks, study length 105 weeks): 22.9 mg/kg/day
- carcinogen call (rat, strain Charles River CD (Sprague-Dawley), males, in feed, site: liver, lesion: hepatocellular adenoma, dosed 104 weeks, study length 104 weeks): negative (inactive)
- carcinogen call (rat, strain Charles River CD (Sprague-Dawley), males, in feed, site: liver, lesion: one or several types, types not named, dosed 52 weeks, study length 52 weeks): negative (inactive)
